We go through nine molecules from patent publication US9034921B2, “Diphenylmethane derivatives as SGLT2 inhibitors” (GREEN CROSS CORPORATION, priority 2011, dated 2015).

The structures appear in SMILES notation.

human SGLT2, sequence (P31639 whole entry): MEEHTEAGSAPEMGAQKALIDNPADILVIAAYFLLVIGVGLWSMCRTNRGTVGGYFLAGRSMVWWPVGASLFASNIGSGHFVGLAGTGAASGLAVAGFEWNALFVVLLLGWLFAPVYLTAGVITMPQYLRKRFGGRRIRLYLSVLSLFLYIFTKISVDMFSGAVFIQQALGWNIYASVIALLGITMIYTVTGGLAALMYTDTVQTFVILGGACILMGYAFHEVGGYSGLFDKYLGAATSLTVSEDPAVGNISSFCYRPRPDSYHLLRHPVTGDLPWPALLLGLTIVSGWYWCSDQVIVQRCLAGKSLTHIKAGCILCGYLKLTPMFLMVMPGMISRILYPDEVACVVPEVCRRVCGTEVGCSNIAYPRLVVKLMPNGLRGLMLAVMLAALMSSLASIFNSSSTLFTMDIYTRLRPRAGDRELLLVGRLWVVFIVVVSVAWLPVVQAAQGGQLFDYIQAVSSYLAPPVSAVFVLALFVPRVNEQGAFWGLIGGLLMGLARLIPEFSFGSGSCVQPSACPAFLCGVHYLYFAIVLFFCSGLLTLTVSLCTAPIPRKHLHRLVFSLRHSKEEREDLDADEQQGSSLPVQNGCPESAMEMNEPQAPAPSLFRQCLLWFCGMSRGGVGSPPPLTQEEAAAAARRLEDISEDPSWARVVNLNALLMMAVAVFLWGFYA

The assay has as its target human SGLT2 (Homo sapiens (Human), UniProt P31639). The assay is described as follows: Inhibitory effects on human SGLT2 activities (14C-AMG uptake, sodium-dependent glucose transport assay). The format is cell-based. The following applies: CHO cells stably expressing hSGLT2, 37° C., 2 h, single determinations. An outline of the steps:
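CHO cells stably expressing hSGLT2 were preincubated 10 min at 37 °C in choline (Na+-free) buffer, then exposed 2 h at 37 °C to compound in Na+ uptake buffer with 8 μM 14C-AMG and 1 mM unlabeled AMG. Radioactivity was scintillation counted; IC50 came from nonlinear regression.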
As to `OC[C@H]1O[C@@H](c2cc(Cc3ccc4c(c3)NCCO4)c(Cl)c3c2CCO3)[C@H](O)[C@@H](O)[C@@H]1O` [Example E231, (2S,3R,4R,5S,6R)-2-(7-Chloro-6-((3,4-dihydro-2H-benzo[b][1,4]oxazin-6-yl)methyl)-2,3-dihydrobenzofuran-4-yl)-6-(hydroxymethyl)-tetrahydro-2H-pyran-3,4,5-triol], it took 5.56 nM to reach half-maximal inhibition (IC50).

Molecule `OC[C@H]1O[C@@H](c2cc(Cc3ccc(OC4CCCC4)cc3)c(Cl)c3c2CCO3)[C@H](O)[C@@H](O)[C@@H]1O` [Example E232, (2S,3R,4R,5S,6R)-2-(7-Chloro-6-(4-(cyclopentyloxy)benzyl)-2,3-dihydrobenzofuran-4-yl)-6-(hydroxymethyl)-tetrahydro-2H-pyran-3,4,5-triol] displayed an IC50 of 1.6 nM. As to `OC[C@H]1O[C@@H](c2cc(Cc3ccc(C4CCCC4)cc3)c(Cl)c3c2CCO3)[C@H](O)[C@@H](O)[C@@H]1O` [Example E233, (2S,3R,4R,5S,6R)-2-(7-Chloro-6-(4-cyclopentylbenzyl)-2,3-dihydrobenzofuran-4-yl)-6-(hydroxymethyl)-tetrahydro-2H-pyran-3,4,5-triol], the IC50 was determined as 1.16 nM.

`OC[C@H]1O[C@@H](c2cc(Cc3ccc(OC4CCC4)cc3)c(Cl)c3c2CCO3)[C@H](O)[C@@H](O)[C@@H]1O` [Example E234, (2S,3R,4R,5S,6R)-2-(7-Chloro-6-(4-cyclobutoxybenzyl)-2,3-dihydrobenzofuran-4-yl)-6-(hydroxymethyl)-tetrahydro-2H-pyran-3,4,5-triol]: 2.82 nM corresponded to half-maximal inhibition (IC50).

Consider `COc1ccc(Cc2cc([C@@H]3O[C@H](CO)[C@@H](O)[C@H](O)[C@H]3O)c3c(c2C(F)F)CCC3)cc1` [Example E237, (2S,3R,4R,5S,6R)-2-(7-(Difluoromethyl)-6-(4-methoxybenzyl)-2,3-dihydro-1H-inden-4-yl)-6-(hydroxymethyl)tetrahydro-2H-pyran-3,4,5-triol], for which inhibition was half-maximal at 0.734 nM (IC50).

Regarding `CCc1ccc(Cc2cc([C@@H]3O[C@H](CO)[C@@H](O)[C@H](O)[C@H]3O)c3c(c2Cl)CCC3)cc1` [Example E238, (2S,3R,4R,5S,6R)-2-(7-Chloro-6-(4-ethylbenzyl)-2,3-dihydro-1H-inden-4-yl)-6-(hydroxymethyl)tetrahydro-2H-pyran-3,4,5-triol], the IC50 is 0.627 nM. The figure for `CCc1ccc(Cc2cc([C@@H]3O[C@H](CO)[C@@H](O)[C@H](O)[C@H]3O)c3c(c2C(F)F)CCC3)cc1` [Example E239, (2S,3R,4R,5S,6R)-2-(7-(Difluoromethyl)-6-(4-ethylbenzyl)-2,3-dihydro-1H-inden-4-yl)-6-(hydroxymethyl)tetrahydro-2H-pyran-3,4,5-triol] is 0.718 nM. Molecule `COc1ccc(Cc2cc([C@@H]3O[C@H](CO)[C@@H](O)[C@H](O)[C@H]3O)c3c(c2Cl)SCC3)cc1` [Example E241, (2S,3R,4R,5S,6R)-2-(7-Chloro-6-(4-methoxybenzyl)-2,3-dihydrobenzo[b]thiophen-4-yl)-6-(hydroxymethyl)tetrahydro-2H-pyran-3,4,5-triol] displayed an IC50 of 0.902 nM. As for `COc1ccc(Cc2cc([C@@H]3O[C@H](CO)[C@@H](O)[C@H](O)[C@H]3O)c3c(c2Cl)SCCC3)cc1` [Example E242, (2S,3R,4R,5S,6R)-2-(8-Chloro-7-(4-methoxybenzyl)thiochroman-5-yl)-6-(hydroxymethyl)tetrahydro-2H-pyran-3,4,5-triol], the figure is 0.552 nM.
